The record followed here is ChEMBL document CHEMBL3826902, “Synthesis and cytotoxic activities of semisynthetic zearalenone analogues” (Bioorg Med Chem Lett, 2016).

Calls of active or inactive are those of the source. The rule behind the calls is not given here.

In series [1] the test system is KB. Briefly: Cytotoxicity against human KB cells assessed as reduction in cell viability by resazurin microplate assay. The class given is functional, cell-based.
The subject of series [2] is MCF7. Briefly: Cytotoxicity against human MCF7 cells assessed as reduction in cell viability by resazurin microplate assay. The class given is functional, cell-based. Background: The colour change of resazurin is a common sign of viable cells or microbes.
The test system of series [3] is Vero. Nature of the series: Cytotoxicity against African green monkey Vero cells assessed as reduction in cell viability by green fluorescent protein-based assay. Also noted: species or system Chlorocebus sabaeus.
The subject of series [4] is KB. Nature of the series: Cytotoxicity against human KB cells assessed as reduction in cell viability at >50 ug/ml by resazurin microplate assay. The class given is functional, cell-based.
Series [5] relates to MCF7. Nature of the series: Cytotoxicity against human MCF7 cells assessed as reduction in cell viability at >50 ug/ml by resazurin microplate assay. The class given is functional, cell-based.
Series [6] deals with Vero. Nature of the series: Cytotoxicity against African green monkey Vero cells assessed as reduction in cell viability at >50 ug/ml by green fluorescent protein-based assay. The following applies: Chlorocebus sabaeus.
A short description of series [7]: Cytotoxicity against human HL60 cells assessed as reduction in cell viability after 24 hrs by MTT assay. It counts as functional, cell-based. The following applies: HL-60, 24 h. On the technique in general: Tetrazolium assays rely on reduction of a dye to a coloured formazan, in cell work by metabolically active cells.

As to `COc1cc2c(c(OC)c1)C(=O)O[C@@H](C)CCC[C@H](O)CCCCC2`, the IC50 entry in series [1] (kb), in series [2] (mcf7) and in series [3] (vero) was “Not Active” throughout. Moreover, the result in series [4] and in series [5] was inactive. In addition, in series [6], the Activity entry is listed as “Non-toxic”.
For the compound `C[C@H]1CCCC(=O)CCC/C=C/c2cc(O)cc(O)c2C(=O)O1` [ZEARALENONE], the IC50 is 46.3 µM in series [1] (Homo sapiens, KB, read-out: IC50); 105 µM in series [2] (Homo sapiens, MCF7, read-out: IC50); 40.6 µM in series [3] (Chlorocebus sabaeus, Vero, read-out: IC50); 138 µM in series [7].

What is called IC50 is the midpoint of a concentration-inhibition curve.
